What is called half-life is how long it takes for the measured level to halve. In general, IC50 refers to the midpoint of a concentration-inhibition curve. The low end stands for inhibition by little substance, the high end for a need for much substance. Broadly, the AUC is concentration integrated over time. Low readings indicate less exposure, high ones more exposure. What is called Ki is a dissociation constant, usually derived from enzyme kinetics or from competition with a known ligand.

Series [1] has as its system MIA PaCa-2. The series can be described thus: Additive ferroptosis activity in human MIA-PaCa-2 cells at upto 1 uM measured after 7 days in presence of deferoxamine by crystal violet staining based analysis. Format: functional, cell-based. The following applies: time 7.0 day.
Series [2] in a line: Toxicity in C57BL/6 mouse assessed as effect on body weight at 30 mg/kg, po measured upto 32 days in presence of copper sulfate. The format is organism-based. The following applies: in vivo, 768 h, time < 32 day.
Series [3] has as its system MIA PaCa-2. The series can be described thus: Induction of apoptosis in human MIA PaCa-2 cells assessed as early apoptotic cells at 10.0 uM measured after 48 hrs by Annexin V-Alexa Fluor 488/propidium iodide staining based flow cytometry (reference value: 4.11%). The format is functional. In general terms: A flow cytometer gives signals particle by particle.
Series [4] in a line: Half life in CD-1 mouse plasma at 20 mg/kg, po. The format is ADME, organism-based.
Series [5] deals with MIA PaCa-2. The series can be described thus: Synergistic cytotoxicity in human MIA PaCa-2 cells at upto 1 uM measured after 7 days in presence of paclitaxel by crystal violet staining based analysis. The format is functional, cell-based. The note with it: time 7.0 day.
Another series deals with BXPC-3. As to the kind of experiment: cells. The following applies: Homo sapiens, BXPC-3, 72 h.
The test system of series [6] is MIA PaCa-2. As to the kind of experiment: Induction of apoptosis in human MIA PaCa-2 cells assessed as viable cells at 5.0 uM measured after 48 hrs by Annexin V-Alexa Fluor 488/propidium iodide staining based flow cytometry (reference value: 82.23%). The format is functional. The following applies: read-out: Activity.
The nature of series [7]: AUC (0 to time of last detectable concentration) in CD-1 mouse plasma at 10 mg/kg, iv. Set-up: dose 10 mg/kg, route iv. Format: ADME, organism-based.
The nature of series [8]: Cytotoxicity against HFF-1 cells measured after 72 hrs by MTT assay. The format is toxicity, cell-based. The following applies: human.
For the next series, the target named is Histamine H3 receptor (Homo sapiens, UniProt Q9Y5N1). As to the kind of experiment: Binding affinity to histamine H3 receptor (unknown origin) assessed as inhibition constant.
Series [9] concerns MIA PaCa-2. As to the kind of experiment: Inhibition of colony formation in human MIA PaCa-2 cells at 0.04 to 30 uM pretreated with ammonium tetrathiomolybdate for 4 hrs followed by compound addition and measured after 6 days. Format: functional, cell-based. The note with it: dose 0.04-30 µM, time 6.0 day.
Another series is described as follows: cells. The following applies: Mus musculus, KPC2, 72 h.
The test system of series [10] is MIA PaCa-2. The series can be described thus: Additive cytotoxicity against human MIA PaCa-2 cells at upto 1 uM measured after 7 days in presence of copper chloride by crystal violet staining based analysis. The format is functional, cell-based. The following applies: time 7.0 day.
Series [11] deals with MIA PaCa-2. As to the kind of experiment: Additive ferroptosis activity in human MIA-PaCa-2 cells at upto 1 uM measured after 7 days in presence of FIN56 by crystal violet staining based analysis. Format: functional, cell-based. The following applies: time 7.0 day.
Series [12] concerns MIA PaCa-2. As to the kind of experiment: Additive ferroptosis activity in human MIA-PaCa-2 cells at upto 1 uM measured after 7 days in presence of erastin by crystal violet staining based analysis. Format: functional, cell-based. The note with it: time 7.0 day.
The subject of series [13] is MIA PaCa-2. As to the kind of experiment: Induction of cell cycle arrest in human MIA PaCa-2 cells assessed as accumulation of cells in G2/M phase at 1 uM measured after 24 hrs by propidium iodide staining-based flow cytometric analysis (reference value: 16%). The format is functional.
Series [14] has as its system MIA PaCa-2. As to the kind of experiment: Synergistic cytotoxicity in human MIA PaCa-2 cells at upto 1 uM measured after 7 days in presence of gemcitabine by crystal violet staining based analysis. Format: functional, cell-based. The note with it: time 7.0 day.
Another series concerns HCT-116. As to the kind of experiment: Inhibition of colony formation in human HCT-116 cells at 0.04 to 30 uM pretreated with ammonium tetrathiomolybdate for 4 hrs followed by compound addition and measured after 6 days. The format is functional, cell-based. The note with it: dose 0.04-30 µM, time 6.0 day.
Series [15] relates to MIA PaCa-2. As to the kind of experiment: Induction of cell cycle arrest in human MIA PaCa-2 cells assessed as accumulation of cells in S phase at […] measured after 24 hrs by propidium iodide staining-based flow cytometric analysis (reference value: 31%). The format is functional. The following applies: dose 2.5 µM.
The next series deals with PANC-1. The series can be described thus: Induction of autophagy in human PANC-1 cells assessed as upregulation of LC-3 level at 1 to 10 uM measured after 24 hrs. The note with it: dose 1-10 µM. Format: functional, cell-based.
In series [16] the test system is MIA PaCa-2. The series can be described thus: Synergistic cytotoxicity in human MIA PaCa-2 cells at upto 1 uM measured after 7 days in presence of SC144 by crystal violet staining based analysis. Format: functional, cell-based. The following applies: time 7.0 day.

Calls of active or inactive are those of the source. The calls are words filed in the database; no cut-off is given here.

Chain of Histamine H3 receptor (Q9Y5N1 whole entry): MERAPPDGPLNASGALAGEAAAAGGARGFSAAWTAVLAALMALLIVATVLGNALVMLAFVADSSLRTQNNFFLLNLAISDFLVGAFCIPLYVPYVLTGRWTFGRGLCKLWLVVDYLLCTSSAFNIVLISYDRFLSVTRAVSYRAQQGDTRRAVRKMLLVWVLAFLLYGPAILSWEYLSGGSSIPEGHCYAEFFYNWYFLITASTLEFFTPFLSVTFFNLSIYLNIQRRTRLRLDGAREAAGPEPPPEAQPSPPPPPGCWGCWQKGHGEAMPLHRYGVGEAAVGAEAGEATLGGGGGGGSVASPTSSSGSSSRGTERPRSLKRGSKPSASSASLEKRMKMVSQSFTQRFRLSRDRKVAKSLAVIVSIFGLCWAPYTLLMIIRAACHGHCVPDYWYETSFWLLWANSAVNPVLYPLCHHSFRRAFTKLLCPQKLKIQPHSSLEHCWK

As for `CCN(CC)CCCC(C)Nc1cnc(C(=O)Nc2ccc(Cl)c3cccnc23)cn1` (stereo unspecified), the outcome with MIA PaCa-2 [1], in the series on MIA PaCa-2 [10], in the series on MIA PaCa-2 [11], in the series on MIA PaCa-2 [12] and in the series on PANC-1 was Active. In addition, the Activity result in series [2] is recorded as “Non-Toxic”; in the series with MIA PaCa-2 [3], 32.58%; in the series with MIA PaCa-2 [13] it was 13%; with MIA PaCa-2 [15], 35%. Besides, the half-life in series [4] is 6.1 h. The result with MIA PaCa-2 [5], in the series on MIA PaCa-2 [14] and in the series with MIA PaCa-2 [16] was inactive. The values for the IC50 with BXPC-3 and in the series “cells” were 5.8 µM and 2.7 µM, respectively. Also, in the series with MIA PaCa-2 [6], the viability at 5 µM was found to be 32.4%. In series [7], this compound displayed an AUC of 2600 ng·h/mL. The compound further yielded a half-maximal inhibitory concentration (IC50) at 72 h in [8] of 8 µM. For the same compound, the inhibitory constant (Ki) on Histamine H3 receptor stood at 1.18 µM. Moreover, the inhibition entry in the series with MIA PaCa-2 [9] and in the series with HCT-116 was “inactive” in each case.

For the origin of these results see ChEMBL document CHEMBL5316327, “Design and Synthesis of Orally Active Quinolyl Pyrazinamides as Sigma 2 Receptor Ligands for the Treatment of Pancreatic Cancer” (J Med Chem, 2023).
